Measured values reported in patent publication US20260098008A1, “COVALENT, CHEMOGENETIC ACTIVATORS FOR K2P POTASSIUM CHANNELS AND USES THEREOF” (THE REGENTS OF THE UNIVERSITY OF CALIFORNIA, priority 2022, published 2026).

What was measured:
Experiment in all cases: TEVC in Xenopus oocytes
Assay type in all cases: cell-based
[1] = biological target: T1, K2P2.1 (TREK-1) S131A (Mus musculus, UniProt P97438, S146A); details: 20 μM, 0 mV
T1 construct: expressed in transfected cells; host or cells: Xenopus laevis oocytes injected with mRNA
T1 sequence (P97438 1-411 isoform P97438-2 S131A): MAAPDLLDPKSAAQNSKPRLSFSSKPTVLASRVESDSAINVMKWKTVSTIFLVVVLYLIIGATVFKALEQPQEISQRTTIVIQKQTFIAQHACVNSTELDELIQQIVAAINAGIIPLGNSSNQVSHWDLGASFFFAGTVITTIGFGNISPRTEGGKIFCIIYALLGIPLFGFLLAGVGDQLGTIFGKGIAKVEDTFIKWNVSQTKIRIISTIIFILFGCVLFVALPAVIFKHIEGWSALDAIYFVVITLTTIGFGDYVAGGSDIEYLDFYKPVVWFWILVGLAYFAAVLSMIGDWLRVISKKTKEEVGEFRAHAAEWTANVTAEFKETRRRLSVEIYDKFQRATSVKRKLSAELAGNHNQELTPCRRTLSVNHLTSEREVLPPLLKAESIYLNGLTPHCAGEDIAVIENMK

[2] = biological target: T2, K2P10.1 (TREK-2)^CG* (Mus musculus, UniProt Q8BUW1, S153C); details: 20 μM, Xenopus oocytes
T2 construct: Modified TREK-2 from Mus musculus; expressed in transfected cells; host or cells: Xenopus laevis oocytes injected with mRNA
T2 sequence (Q8BUW1 with tags, fused parts or gaps S153C): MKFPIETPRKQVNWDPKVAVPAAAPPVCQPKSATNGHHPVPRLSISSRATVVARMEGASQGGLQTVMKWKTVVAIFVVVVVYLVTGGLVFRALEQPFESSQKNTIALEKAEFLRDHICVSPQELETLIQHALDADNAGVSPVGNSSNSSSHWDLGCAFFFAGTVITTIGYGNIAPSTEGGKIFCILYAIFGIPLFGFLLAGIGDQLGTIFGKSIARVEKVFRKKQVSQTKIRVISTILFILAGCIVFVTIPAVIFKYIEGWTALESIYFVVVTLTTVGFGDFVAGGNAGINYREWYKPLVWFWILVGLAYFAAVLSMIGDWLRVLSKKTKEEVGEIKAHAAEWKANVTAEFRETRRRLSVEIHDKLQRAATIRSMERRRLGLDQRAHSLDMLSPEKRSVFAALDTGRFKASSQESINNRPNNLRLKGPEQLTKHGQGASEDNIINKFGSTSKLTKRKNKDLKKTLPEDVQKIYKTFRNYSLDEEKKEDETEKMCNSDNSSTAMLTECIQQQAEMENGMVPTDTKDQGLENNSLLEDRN

[3] = biological target: T3, K2P18.1 (TRESK)^CG* (Mus musculus, UniProt Q6VV64, S116C); details: 20 μM
T3 construct: expressed in transfected cells; host or cells: Xenopus laevis oocytes injected with mRNA
T3 sequence (Q6VV64 1-394 S116C): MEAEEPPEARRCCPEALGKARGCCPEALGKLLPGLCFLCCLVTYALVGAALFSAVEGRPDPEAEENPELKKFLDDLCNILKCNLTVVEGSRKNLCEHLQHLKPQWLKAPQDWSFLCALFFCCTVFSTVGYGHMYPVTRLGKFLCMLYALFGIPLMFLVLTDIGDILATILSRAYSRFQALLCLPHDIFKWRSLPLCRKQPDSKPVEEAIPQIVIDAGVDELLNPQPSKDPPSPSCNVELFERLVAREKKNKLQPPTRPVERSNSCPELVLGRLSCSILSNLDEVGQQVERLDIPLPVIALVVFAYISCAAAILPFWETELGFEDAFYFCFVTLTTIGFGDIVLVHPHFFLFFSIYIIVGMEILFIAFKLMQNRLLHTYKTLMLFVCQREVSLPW

Row | SMILES | Fold-activation (I activator/I control) [1] [fold] | Fold-activation (I activator/I control) ([2]; 0 mV) [fold] | Reversibility of activation [2] | Activation of channel [3]
1 | CS(=O)(=O)Nc1ccc(C(=O)NCc2ccc(Cl)cc2Cl)cc1 [ML335, reference compound] | 6.8 |  |  | 
2 | O=C(NCc1ccc(Cl)cc1Cl)c1ccc(N2C(=O)C=CC2=O)cc1 [CAT335] |  | 18±2 | irreversibly activated | not activated
